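How tested: cells in 96-well plates exposed to compound for 48 hours at five concentrations. TGI marks complete inhibition of growth.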
Tests used:
Test in all cases: DTP human tumour cell line panel, 48 h
ACHN renal = tested on: ACHN renal
COLO 205 colon = tested on: COLO 205 colon
EKVX NSCLC = tested on: EKVX NSCLC
HOP-92 NSCLC = tested on: HOP-92 NSCLC
M14 melanoma = tested on: M14 melanoma
OVCAR-4 ovarian = tested on: OVCAR-4 ovarian
OVCAR-5 ovarian = tested on: OVCAR-5 ovarian
SF-268 CNS = tested on: SF-268 CNS
SK-MEL-28 melanoma = tested on: SK-MEL-28 melanoma
SK-OV-3 ovarian = tested on: SK-OV-3 ovarian
SN12C renal = tested on: SN12C renal
SNB-75 CNS = tested on: SNB-75 CNS
SR leukemia = tested on: SR leukemia
SW-620 colon = tested on: SW-620 colon
U251 CNS = tested on: U251 CNS
A498 renal = tested on: A498 renal
BT-549 breast = tested on: BT-549 breast
HCC-2998 colon = tested on: HCC-2998 colon

SMILES	TGI (ACHN renal) [µM]	TGI (COLO 205 colon) [µM]	TGI (EKVX NSCLC) [µM]	TGI (HOP-92 NSCLC) [µM]	TGI (M14 melanoma) [µM]	TGI (OVCAR-4 ovarian) [µM]	TGI (OVCAR-5 ovarian) [µM]	TGI (SF-268 CNS) [µM]	TGI (SK-MEL-28 melanoma) [µM]	TGI (SK-OV-3 ovarian) [µM]	TGI (SN12C renal) [µM]	TGI (SNB-75 CNS) [µM]	TGI (SR leukemia) [µM]	TGI (SW-620 colon) [µM]	TGI (U251 CNS) [µM]	TGI (A498 renal) [µM]	TGI (BT-549 breast) [µM]	TGI (HCC-2998 colon) [µM]
O=C(O)CCNc1ncc2c(n1)-c1ccccc1OC2	> 100	> 100	> 100	> 100	> 100	> 100	> 100	> 100	> 100	> 100	> 100	> 100	> 100	> 100	> 100			
Cc1c2oc3c(C)cnc(C(=O)NC4C(=O)NC(C(C)C)C(=O)N5CCCC5C(=O)N(C)CC(=O)N(C)C(C(C)C)C(=O)OC4C)c3nc-2c(C(=O)NC2C(=O)NC(C(C)C)C(=O)N3CCCC3C(=O)N(C)CC(=O)N(C)C(C(C)C)C(=O)OC2C)c(N)c1=O (centres undefined)	> 64.6	14.2	> 75	36	16.8	73.5	> 75	24.4	30.3	61.5	> 70.1	21.3		> 53.3	> 38	29.8	33.5	15.7
O=C1C[C@@H]2[C@@H](CCC23CCCC3)N1	> 100	> 100	> 100		> 100	> 100	> 100	> 100	> 100	> 100	> 100	> 100		> 100	> 100	> 100		> 100
N#Cc1sc2c(c1OC(=O)c1ccc(Cl)cc1)c(=O)n(-c1ccccc1)c(=S)n2-c1ccccc1	86.8	38.1	49.2	66.7	50.8	76.7	68.2	97.7	47.2	91.4	54	> 100	75.9	46.9	38.6	57.2		52.2
CN1C(=S)CSc2ccccc21	> 100	> 100	> 100	> 100	> 100	> 100	> 100	> 100	> 100	> 100	> 100	> 100	> 100	> 100	> 100			
Cc1ccc(N=NN(C)C(C)C(O)Cc2ccccc2)cc1 (centres undefined)	> 100	> 100	> 100		> 100	> 100	> 100	> 100	> 100	> 100	> 100	> 100		> 100	> 100		> 100	> 100
CCOC(CN(C)C(=O)Nc1ccc(Cl)c(Cl)c1)OCC	> 10	> 10	> 10	> 10	> 10	> 10		> 10	> 10	> 10	> 10	> 10	> 10	> 10	> 10	> 10		> 10
O=C1N=CN=C2C=CC(Cl)=C(I)C12 (centres undefined)	> 100	> 100	> 100		> 100	> 100	> 100	> 100	> 100	> 100	> 100		> 100	> 100	> 100	> 100		> 100
CC(C)COC(=O)c1ccc(N=Cc2ccc(C=Nc3ccc(C(=O)OCC(C)C)cc3)cc2)cc1	> 100	> 100		> 100	> 100	> 100	> 100	> 100	> 100	> 100	> 100	> 100	> 100	> 100	> 100			> 100
CSCCC(NC(=O)Cc1ccc(C(=O)c2ccccc2)cc1)C(=O)N1CCN(CCCCN2c3ccccc3Sc3cc(N=[N+]=[N-])ccc32)CC1 (centres undefined)	> 100	> 100	> 100	> 100		> 100	> 100	> 100		> 100	> 100				> 100	> 100	> 100	> 100
CC1OC(OC2C(OC(=O)[C@]34CCC(C)(C)CC3C3=CCC5[C@@]6(C)C[C@H](O)[C@H](OC7OC(COC8OC(CO)C(O)C(O)C8O)C(O)C(O)C7O)[C@@](C)(C(=O)O)C6CC[C@@]5(C)C3(C)CC4)OCC(O)C2O)C(O)C(O)C1OC1OCC(O)C(O)C1O (some centres undefined)	> 100	> 100	> 100	> 100			> 100	> 100	> 100	> 100	> 100	> 100		> 100	> 100	> 100		> 100
O=C(CSc1nnc(Cc2ccccc2)o1)Nc1ccc(Cl)cc1[N+](=O)[O-]	25.2	46.4	40.1		32.9	33.9		40.2	29	> 100	31.4	39.5	> 100	53.8	34.8			
O=C1NC(=S)N/C1=C\c1ccc(Cl)cc1		> 100	> 100		> 100	> 100	> 100	> 100	> 100	> 100	> 100	> 100		> 100	> 100		> 100	> 100
Cc1ccc(C(=O)C(c2nc3n(c2O)C(=N)N=N3)c2nc3n(c2O)C(=N)N=N3)cc1 (centres undefined)	> 100	> 100	> 100	> 100	> 100	> 100	> 100	> 100	> 100	> 100	> 100	> 100		> 100		> 100		> 100
O=S1(=O)OCCOS(=O)(=O)C1(Cl)Cl		> 100	> 100	> 100	> 100	> 100		> 100	> 100	> 100	> 100	> 100	> 100	> 100		> 100		> 100
COc1cccc(N2C(=O)/C(=C/c3ccc(N(CCC#N)CCC#N)cc3)N=C2c2cc([N+](=O)[O-])ccc2Cl)c1	> 100	62.4			> 100	> 100	> 100	> 100	> 100	> 100	> 100	> 100	> 100	> 100	> 100	> 100		> 100
CC(C)(C)C(O)CC(O)(C(F)(F)F)C(F)(F)F (centres undefined)	> 100	> 100	> 100	> 100	> 100	> 100	> 100	> 100	> 100	> 100	> 100	> 100	> 100	> 100	> 100	> 100		> 100
C=CCOC1CC(n2cnc3c(N)ncnc32)OC1CO (centres undefined)	> 100	> 100		> 100	> 100	> 100	> 100	> 100	> 100			> 100	> 100	> 100	> 100			> 100
O=C1C(Cl)=C(N2CCN(CCOCCO)CC2)C(=O)c2ccccc21	19.5	28.7	32.3	2.89	22.6	6.26	37.4	30.3	32.1	28.9	28.8	27.7	8.51	3.09	31	33.4		32.1
CC1=NNC(=O)C1C1CC(c2c[nH]c3ccccc23)=NN(c2ccccc2)C1=O (centres undefined)	> 100	> 100	> 100	> 100	> 100		> 100	> 100	> 100	> 100	> 100	> 100		> 100	> 100	> 100	> 100	
CC(NC(=O)C(N)CC(=O)O)C(=O)OC12CC3CC(CC(C3)C1)C2 (centres undefined)	> 100	> 100	> 100	> 100	> 100	> 100	> 100	> 100	> 100	> 100	> 100	> 100	> 100	> 100	> 100			> 100
COC(=O)C1CC(c2ccc(Cl)cc2)=NO1 (centres undefined)	> 100	> 100	> 100	> 100	> 100	> 100	> 100	> 100	> 100	> 100	> 100	> 100	> 100	> 100	> 100	> 100		> 100
Cc1ccc(S(=O)(=O)NN=C2C(C)(C)CC2(C)C)cc1	> 100	> 100	> 100	> 100	> 100	> 100	> 100	> 100	> 100	> 100	> 100	> 100		> 100	> 100	> 100		> 100
CC(=O)NNc1nc(C)c(C(/C=C/c2ccc(Cl)cc2)=N\N=C(N)N)s1	> 100	> 100		> 100	> 100	> 100	> 100	> 100	> 100	> 100	> 100	> 100	> 100	> 100	> 100			> 100
Cc1ccc(NC(=O)CCc2nnc3s/c(=C\c4cccc([N+](=O)[O-])c4)c(=O)n23)cc1	> 100	> 100	> 100	> 100	> 100	> 100	> 100	> 100	> 100	> 100	> 100	> 100	> 100	38.6	> 100	> 100		> 100
O=C(CC(=O)N1N=C(n2ccc3ccccc32)CC1c1ccccc1)Nc1ccc(Cl)cc1 (centres undefined)	> 100	> 100	> 100	> 100	> 100	> 100	> 100	> 100	> 100	> 100	> 100	> 100		> 100	> 100	> 100		> 100
Cc1cc(N(CCC#N)CCC#N)ccc1/C=C1N=C(/C=C/c2ccccc2)N(c2ccc(S(N)(=O)=O)cc2)C\1=O	> 100	> 100		> 100	> 100	> 100	> 100	> 100	> 100	> 100	> 100	> 100	> 100	> 100	> 100	> 100		
CCOC(=O)NC(Nc1ccc(S(=O)(=O)Nc2ccc(OC)nn2)cc1)(C(F)(F)F)C(F)(F)F	90.7	58.7	> 100	73.2	50.4	> 100	> 100	> 100	55.6	> 100	83.9	> 100	55.8	> 100	41	54.6		> 100

Source: PubChem BioAssay (NCI)
